The source made the active and inactive calls.
Columns and labels:
Bacillus subtilis = assay: Antibacterial activity against Bacillus subtilis ATCC 6051 assessed as reduction In microbial growth up to 30 uM after 24 hrs by spectrophotometric method; assay type: functional, organism-based
Escherichia coli = assay: Antibacterial activity against Escherichia coli ATCC 11775 assessed as reduction In microbial growth up to 30 uM after 24 hrs by spectrophotometric method; assay type: functional, organism-based
NCI-H460 = assay: Cytotoxicity against human NCI-H460 cells assessed as reduction in cell viability up to 30 uM uM after 48 hrs by MTT assay; assay type: functional, cell-based
Candida albicans = assay: Antifungal activity against Candida albicans ATCC 10231 assessed as reduction In microbial growth up to 30 uM after 24 hrs by spectrophotometric method; assay type: functional, organism-based
SW-620 = assay: Cytotoxicity against human SW620 cells assessed as reduction in cell viability up to 30 uM after 48 hrs by MTT assay; assay type: functional, cell-based

Measured: Activity

CC1(C)CCC[C@]2(C)C3=C(CC[C@@H]12)C(=O)OC3O (stereo not given in full)
inactive: Bacillus subtilis | Escherichia coli | NCI-H460 | Candida albicans | SW-620

CCO[C@H]1C2=C(CC[C@H]3C(C)(C)CCC[C@]23C)C(=O)N1CC(=O)O
inactive: Bacillus subtilis | Escherichia coli | NCI-H460 | Candida albicans | SW-620

CCO[C@@H]1C2=C(CC[C@H]3C(C)(C)CCC[C@]23C)C(=O)N1CC(=O)O
inactive: Bacillus subtilis | Escherichia coli | NCI-H460 | Candida albicans | SW-620

CC1(C)CCC[C@]2(C)C3=C(CC[C@@H]12)C(=O)N(CC(=O)O)[C@H]3O
inactive: Bacillus subtilis | Escherichia coli | NCI-H460 | Candida albicans | SW-620

CC1(C)CCC[C@]2(C)C3=C(CC[C@@H]12)C(=O)N(CC(=O)O)[C@@H]3O
inactive: Bacillus subtilis | Escherichia coli | NCI-H460 | Candida albicans | SW-620

CC1(C)CCC[C@]2(C)C3=C(CC[C@@H]12)C(=O)NC3=O
inactive: Bacillus subtilis | Escherichia coli | NCI-H460 | Candida albicans | SW-620

CC1(C)CCC[C@]2(C)C3=C(CC[C@@H]12)C(O)OC3=O (stereo not given in full)
inactive: Bacillus subtilis | Escherichia coli | NCI-H460 | Candida albicans | SW-620

CC1(C)CCC[C@]2(C)C3=C(CC[C@@H]12)CN(CC(=O)O)C3=O
inactive: Bacillus subtilis | Escherichia coli | NCI-H460 | Candida albicans | SW-620

CC1(C)CCC[C@]2(C)C3=C(CC[C@@H]12)C(=O)N(CC(=O)O)C3
inactive: Bacillus subtilis | Escherichia coli | NCI-H460 | Candida albicans | SW-620

CC1(C)CCC[C@]2(C)C3=C(CC[C@@H]12)C(=O)N(CC(=O)O)C3=O
inactive: Bacillus subtilis | Escherichia coli | NCI-H460 | Candida albicans | SW-620

— ChEMBL document CHEMBL4616645, “Dysidealactams and Dysidealactones: Sesquiterpene Glycinyl-Lactams, Imides, and Lactones from a Dysidea sp. Marine Sponge Collected in Southern Australia” (J Nat Prod, 2020)
